# Marks after values point to notes of the source that are not given here.
# Tested on: subjects with mild-to-moderate AD
# Assay: ADCS-ADL (Activities of Daily Living) change from baseline, 57-week Phase 2a study and 208-week extension study
# Type: in vivo, human
# Parameters: key to unadjusted change in ADCS-ADL score, Mean ± Std. Dev: change from baseline on ADCS-ADL scale 0–78, higher = greater function
# Details: for ADCS-ADL Cohen's d: week 57, compared to standard of care
# Source text: The present study integrates and analyzes data and samples from two consecutive clinical trials: 57-week study and 208-week study. 57-week study was a multicenter Phase 2a clinical trial of the drug ANAVEX2-73 that recruited a sample of 32 subjects with mild-to-moderate AD. It consisted of two parts: Part A was a simple randomized, open-label, two-period, cross-over, adaptive trial lasting up to 5 weeks. Each period involved one specific administration route and two possible dose levels: in one period the oral dose (30 mg or 50 mg) was administrated and in the other period an intravenous (IV) form (3 mg or 5 mg) was administered, making a total of 8 possible dose administration schemes in Part A (details available in FIG. 2A). The two periods were separated by a wash-out period of 12 days where no dose was given.
# Part B, following immediately after Part A, was an open-label extension of the oral daily dose for an additional 52 weeks. The primary endpoint of 57-week study was to establish the safety and tolerability of the drug. Secondary endpoints aimed at establishing the relationship between dosing regimen and pharmacodynamics-exploratory efficacy outcomes of cognition and function. Cognition was assessed by the Mini Mental State Examination (MMSE), while functional abilities by the Alzheimer's Disease Co-operative Study—Activities of Daily Living Inventory (ADCS-ADL). Additional cognitive measures included the Cogstate Brief Battery (CBB), and functional measures of Electroencephalography and Event-Related Potential (EEG and ERP). Part B continued an adaptive oral administration scheme. Table 12 summarizes mean oral dose administration during the 57-week study study.
# Due to favorable safety and tolerability profile of the 57-week study (Table 2), and in response to requests from patients and caregivers, a 208-week open-label extension study (208-week study) was carried out immediately after completion of 57-week study Part B. 208-week study enrolled the 24 subjects who completed Part B and applied similarly an adaptive daily oral administration scheme. ANAVEX2-73-003 involves continuous evaluation of safety and efficacy as measured by the MMSE and ADCS-ADL. At week 148 (interim time point for analyses), data on the subjects remaining in the study (n=21) was analyzed for efficacy outcomes. This report was drafted using data available at week 148, while ANAVEX2-73-003 is still ongoing.
# Exploratory clinical efficacy in this study was defined as change from baseline of each patient's cognitive (MMSE) and functional ability (ADCS-ADL) scores. The MMSE57 is a widely used, validated instrument in clinical AD research, including as a cognitive outcome measure in drug trials. The range of the scale is from 0 to 30, with a higher score indicating higher cognitive function. The ADCS-ADL58 is undertaken in a structured caregiver interview format and assesses performance in activities of daily living of patients with AD. The scale is from 0 to 78, with a higher score indicating greater function. The ADCS-ADL has shown to have good test-retest reliability 59. The MMSE and the ADCS-ADL were assessed during pre-specified clinical site visits across 14 different time points during the 57-week study (Weeks 0 and 5 in Part A; Weeks 17, 31, 41, 53, and 57 in Part B), and 208-week study (Weeks 70, 83, 96, 109, 122, 135, and 148) studies.
# Corresponding Delta scores were calculated using the difference between values at each visit and at baseline for each individual patient, with a focus on Week 57. In addition, to lower the impact of noise in MMSE and ADCS-ADL scores, a Slope was estimated using a linear regression across all available time points for each individual patient. The derived scores describe the progression of exploratory efficacy data from baseline at several specific time points (Deltas) and over a set period of time (Slope). […]
smiles,measurement,setting,value
"CN(C)CC1CCOC1(c1ccccc1)c1ccccc1.Cl (centres unmarked) [ANAVEX2-73, tetrahydro-N,N-dimethyl-2,2-diphenyl-3-furanmethanamine hydrochloride]","unadjusted change in ADCS-ADL score, Mean ± Std. Dev","Group 3 (n 11), Week 70",−5.09 ± 10.70
same,"unadjusted change in ADCS-ADL score, Mean ± Std. Dev","Group 3 (n 11), Week 83",−5.55 ± 12.65
same,"unadjusted change in ADCS-ADL score, Mean ± Std. Dev","Group 3 (n 11), Week 96",−8.64 ± 16.10
same,"unadjusted change in ADCS-ADL score, Mean ± Std. Dev","Group 3 (n 11), Week 109",−9.45 ± 15.13
same,"unadjusted change in ADCS-ADL score, Mean ± Std. Dev","Group 3 (n 11), Week 122",−9.27 ± 12.17
same,"unadjusted change in ADCS-ADL score, Mean ± Std. Dev","Group 3 (n 11), Week 135",11.09 ± 16.16
same,"unadjusted change in ADCS-ADL score, Mean ± Std. Dev","Group 3 (n 11), Week 148",−14.73 ± 17.70
same,"unadjusted change in ADCS-ADL score, Mean ± Std. Dev","Group 4 (n 14), Week 148",−19.43 ± 18.50
same,"unadjusted change in ADCS-ADL score, Mean ± Std. Dev","Group 4 (n 15), Week 109",−12.60 ± 15.00
same,"unadjusted change in ADCS-ADL score, Mean ± Std. Dev","Group 4 (n 15), Week 122",−15.20 ± 17.30
same,"unadjusted change in ADCS-ADL score, Mean ± Std. Dev","Group 4 (n 16), Week 0",0.00 ± 0.00
same,"unadjusted change in ADCS-ADL score, Mean ± Std. Dev","Group 4 (n 16), Week 5",−1.25 ± 5.54
same,"unadjusted change in ADCS-ADL score, Mean ± Std. Dev","Group 4 (n 16), Week 17",−0.44 ± 3.42
same,"unadjusted change in ADCS-ADL score, Mean ± Std. Dev","Group 4 (n 16), Week 31",−2.31 ± 6.00
same,"unadjusted change in ADCS-ADL score, Mean ± Std. Dev","Group 4 (n 16), Week 41",−3.31 ± 7.03
same,"unadjusted change in ADCS-ADL score, Mean ± Std. Dev","Group 4 (n 16), Week 53",3.81 ± 7.24
same,"unadjusted change in ADCS-ADL score, Mean ± Std. Dev","Group 4 (n 16), Week 57",−3.38 ± 7.60
same,"unadjusted change in ADCS-ADL score, Mean ± Std. Dev","Group 4 (n 16), Week 70",−6.94 ± 10.87
same,"unadjusted change in ADCS-ADL score, Mean ± Std. Dev","Group 4 (n 16), Week 96",−13.25 ± 16.77
same,"unadjusted change in ADCS-ADL score, Mean ± Std. Dev","Group 4 (n 16), Week 135",−19.12 ± 19.67
same,"unadjusted change in ADCS-ADL score, Mean ± Std. Dev","Group 5 (n 4), Week 5",−3.25 ± 11.30
same,"unadjusted change in ADCS-ADL score, Mean ± Std. Dev","Group 5 (n 4), Week 31",−8.75 ± 3.30
same,"unadjusted change in ADCS-ADL score, Mean ± Std. Dev","Group 5 (n 4), Week 122",−27.75 ± 12.26
same,"unadjusted change in ADCS-ADL score, Mean ± Std. Dev","Group 5 (n 5), Week 0",0.00 ± 0.00
same,"unadjusted change in ADCS-ADL score, Mean ± Std. Dev","Group 5 (n 5), Week 17",−4.20 ± 4.09
same,"unadjusted change in ADCS-ADL score, Mean ± Std. Dev","Group 5 (n 5), Week 41",6.00 ± 3.00
same,"unadjusted change in ADCS-ADL score, Mean ± Std. Dev","Group 5 (n 5), Week 53",−10.00 ± 6.78
same,"unadjusted change in ADCS-ADL score, Mean ± Std. Dev","Group 5 (n 5), Week 57",−11.20 ± 8.93
same,"unadjusted change in ADCS-ADL score, Mean ± Std. Dev","Group 5 (n 5), Week 70",−14.80 ± 9.63
same,"unadjusted change in ADCS-ADL score, Mean ± Std. Dev","Group 5 (n 5), Week 83",−13.20 ± 11.52
same,"unadjusted change in ADCS-ADL score, Mean ± Std. Dev","Group 5 (n 5), Week 96",−18.60 ± 11.67
same,"unadjusted change in ADCS-ADL score, Mean ± Std. Dev","Group 5 (n 5), Week 109",−19.20 ± 13.31
same,"unadjusted change in ADCS-ADL score, Mean ± Std. Dev","Group 5 (n 5), Week 135",−24.00 ± 14.65
same,"unadjusted change in ADCS-ADL score, Mean ± Std. Dev","Group 5 (n 5), Week 148",−26.00 ± 16.17
same,"unadjusted change in ADCS-ADL score, Mean ± Std. Dev","Group 6 (n 2), Week 5",0.50 ± 9.19
same,"unadjusted change in ADCS-ADL score, Mean ± Std. Dev","Group 6 (n 2), Week 31",−10.50 ± 3.54
same,"unadjusted change in ADCS-ADL score, Mean ± Std. Dev","Group 6 (n 3), Week 0",0.00 ± 0.00
same,"unadjusted change in ADCS-ADL score, Mean ± Std. Dev","Group 6 (n 3), Week 17",−5.00 ± 5.20
same,"unadjusted change in ADCS-ADL score, Mean ± Std. Dev","Group 6 (n 3), Week 41",−6.67 ± 4.04
same,"unadjusted change in ADCS-ADL score, Mean ± Std. Dev","Group 6 (n 3), Week 53",−12.67 ± 8.02
same,"unadjusted change in ADCS-ADL score, Mean ± Std. Dev","Group 6 (n 3), Week 57",−14.67 ± 10.50
same,"unadjusted change in ADCS-ADL score, Mean ± Std. Dev","Group 6 (n 3), Week 70",−18.00 ± 12.12
same,"unadjusted change in ADCS-ADL score, Mean ± Std. Dev","Group 6 (n 3), Week 83",−17.00 ± 14.11
same,"unadjusted change in ADCS-ADL score, Mean ± Std. Dev","Group 6 (n 3), Week 96",−26.00 ± 8.19
same,"unadjusted change in ADCS-ADL score, Mean ± Std. Dev","Group 6 (n 3), Week 109",25.33 ± 14.47
same,"unadjusted change in ADCS-ADL score, Mean ± Std. Dev","Group 6 (n 3), Week 122",−32.67 ± 8.96
same,"unadjusted change in ADCS-ADL score, Mean ± Std. Dev","Group 6 (n 3), Week 135",−32.00 ± 13.75
same,"unadjusted change in ADCS-ADL score, Mean ± Std. Dev","Group 6 (n 3), Week 148",−34.33 ± 15.82
same,"favorable difference in adjusted ADCS-ADL, higher concentration arm compared with low/medium arm","MMRM-LME, over 148 weeks",88%
same,effect of higher concentrations on Delta ADCS-ADL scores,"plasma concentration groups, week 57, p=0.03",improved
same,ADCS-ADL Cohen's d,"Absence of COMT_L146fs variant & Baseline MMSE ≥20, N 11",0.89**
same,ADCS-ADL Cohen's d,"Absence of COMT_L146fs variant, N 16",0.57*
same,ADCS-ADL Cohen's d,"Absence of SIGMAR1_Q2P variant, N 16",0.43
same,ADCS-ADL Cohen's d,"Absence of SIGNAR1_Q2P variant & Baseline MMSE ≥20, N 11",0.76*
same,ADCS-ADL Cohen's d,"All, N 21",0.18
same,ADCS-ADL Cohen's d,"Baseline MMSE ≥20, N 13",0.66*

# From patent US12383526B2, “Optimized sigma-1 agonist method of responder selection and treatment” (ANAVEX LIFE SCIENCES CORP., priority 2018, dated 2025)
